# Experimental data taken from US5932559A, “Treatment of hyperandrogenic conditions” (Merck & Co., Inc., priority 1996, dated 1999).
# Tests used:
# type 2 5α-reductase [1] = biological target: T1, type 2 5α-reductase (Homo sapiens, UniProt P31213); test: Progress curves of DHT formation, time course of inhibition of baculovirus expressed type 2 5α-reductase; format: biochemical; details: 20 nM inhibitor, pH 7.2, 37° C.
# T1 construct: made in house
# T1 sequence (P31213 1-254): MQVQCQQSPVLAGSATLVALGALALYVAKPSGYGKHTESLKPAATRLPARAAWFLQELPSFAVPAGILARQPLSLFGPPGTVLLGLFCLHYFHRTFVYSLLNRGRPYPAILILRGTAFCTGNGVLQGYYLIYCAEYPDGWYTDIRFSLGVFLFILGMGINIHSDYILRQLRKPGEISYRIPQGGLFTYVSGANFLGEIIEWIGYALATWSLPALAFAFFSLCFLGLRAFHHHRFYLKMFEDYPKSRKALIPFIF
# Procedure: Ethanol is included at 1% final concentration as the vehicle for introduction of inhibitors. The rate of production of [^3 H]dihydrotestosterone is approximately constant for up to 2 hours or 10% consumption of substrate. A unit of enzyme activity was defined as 1 pmol product/min, and is equal to 444 fmol enzyme under these conditions.
# After quenching the reactions with an equal volume, or more, of water containing 1% trifluoroacetic acid, the [^3 H]dihydrotestosterone is isolated by direct injection onto a reverse phase C-18 column (Vydac 4.6×250 mm, 300 Å, 5 micron), which is run in an isocratic system of 40% water (containing 0.1% trifluoroacetic acid) and 60% methanol at 1 mL/min. […] The effluent containing the [^3 H]dihydrotestosterone peak (6 mL) is collected in a liquid scintillation vial and counted with AQUASOL 2 (14 mL, New England Nuclear) with an efficiency of 0.309. […]
# The native human enzyme was from prostate (type 2) or scalp (type 1) tissue, and the recombinant human enzymes were produced by the baculovirus expression system of Anderson, et al. (Chan, H K, Geissler, W M, Anderson, S, Sex Hormones and Antihormones in Endocrine Dependent Pathology: Basic and Clinical Aspects, M. Motta and M. Serio, eds., Elsevier Science 1994). […] Enzyme concentrations were determined by titration with finasteride, or [^3 H]finasteridem, or from catalytic activity using kcat and Km values. […]
# dihydrotestosterone = details: after withdrawal of finasteride; cited from earlier work
# [2] = system: human prostate (type 2) isozyme; details: cited from earlier work
# [3] = system: human skin (type 1) isozyme; details: cited from earlier work
# type 2 5α-reductase [4] = biological target: T1, type 2 5α-reductase; test: Kinetic constants of baculovirus-expressed type 2 5α-reductase under the standard assay conditions; format: biochemical
# Excerpt: Ethanol is included at 1% final concentration as the vehicle for introduction of inhibitors. […] A unit of enzyme activity was defined as 1 pmol product/min, and is equal to 444 fmol enzyme under these conditions.
# When tissue extracts are the source of enzyme, the quenched reactions are clarified by centrifugation at 10,000×g before analysis.
# The molecular weight was taken to be about 30,000 in estimating enzyme purity.
# [5] = system: native human prostate enzyme; details: read-out: Km (Faller et al.), neutral pH; cited from earlier work
smiles,measurement,setting,value
"CCN(CC)C(=O)[C@H]1CC[C@H]2[C@@H]3CC[C@H]4OC(=O)C=C[C@]4(C)[C@H]3CC[C@]12C [L-682,299, 17β-(N-diethyl)carbamoyl-4-oxa-5α-androst-1-en-3-one]",velocity at infinite-time,type 2 5α-reductase [1],essentially zero
same,inhibition of the enzyme at infinite time,type 2 5α-reductase [1]; inhibition developed slowly with time,total inhibition
"CC(C)(C)NC(=O)[C@H]1CC[C@H]2[C@@H]3CC[C@H]4NC(=O)C=C[C@]4(C)[C@H]3CC[C@]12C [finasteride, 17β-(N-tert-butylcarbamoyl)-3-oxo-4-aza-5α-androst-1-ene-3-one]",time required for dihydrotestosterone to return to basal levels after withdrawal,dihydrotestosterone,as long as two weeks
same,rate constant of binding to the human prostate isozyme,"[2]; Faller et al., slow-binding",270000 M⁻¹ s⁻¹
same,"inhibition type, human prostate (type 2) isozyme",[2]; Harris et al.,slow-binding inhibitors
same,"inhibition of type 2 isozyme, in words",[2]; predominates in the prostate,potently inhibited
same,"inhibition of human skin (type 1) isozyme at clinical doses, in words",[3]; at doses employed in the treatment of BPH,not a significant inhibitor
same,"sensitivity of type 1 isozyme, in words",[3]; sebaceous glands of most regions of skin tissue,relatively insensitive
same,type 1 rate constant as percent of the rate constant against the prostate isozyme,[3]; type 1 vs type 2,about 1%
C[C@]12CC[C@H]3[C@@H](CCC4=CC(=O)CC[C@@]43C)[C@@H]1CC[C@@H]2O [testosterone],Km,"type 2 5α-reductase [4]; baculovirus-expressed type 2, pH 7.2, 37° C., read-out: Km for testosterone",0.0246 ± 0.0007 µM
same,turnover number kcat,"type 2 5α-reductase [4]; type 2, pH 7.2, 37° C., by titration with finasteride",0.075 ± 0.006 s⁻¹
same,Km,[5],0.02 ± 0.003 µM
